# Laboratory results as given in patent publication US20090018134A1, “Compounds - 945” (AstraZeneca AB, priority 2007, published 2009).
# Target: T1, mTOR (Homo sapiens, UniProt P42345)
# T1 construct: FLAG; made in house
# Experiment: In Vitro mTOR Kinase Assay (Echo), Test (a)(ii)
# Assay type: biochemical
# Conditions: read-out: mTOR Kinase Assay (Echo)
# Method in brief: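 Inhibition of truncated mTOR (1362-2549, FLAG-tagged, purified from stably transfected HEK293 cells) is measured as reduced AlphaScreen signal from a phospho-T389-recognising antibody bound to the biotinylated peptide product. Kinase incubation lasts 2 hours at room temperature. Potency is given as IC50.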
# T1 sequence (P42345 1362-2549): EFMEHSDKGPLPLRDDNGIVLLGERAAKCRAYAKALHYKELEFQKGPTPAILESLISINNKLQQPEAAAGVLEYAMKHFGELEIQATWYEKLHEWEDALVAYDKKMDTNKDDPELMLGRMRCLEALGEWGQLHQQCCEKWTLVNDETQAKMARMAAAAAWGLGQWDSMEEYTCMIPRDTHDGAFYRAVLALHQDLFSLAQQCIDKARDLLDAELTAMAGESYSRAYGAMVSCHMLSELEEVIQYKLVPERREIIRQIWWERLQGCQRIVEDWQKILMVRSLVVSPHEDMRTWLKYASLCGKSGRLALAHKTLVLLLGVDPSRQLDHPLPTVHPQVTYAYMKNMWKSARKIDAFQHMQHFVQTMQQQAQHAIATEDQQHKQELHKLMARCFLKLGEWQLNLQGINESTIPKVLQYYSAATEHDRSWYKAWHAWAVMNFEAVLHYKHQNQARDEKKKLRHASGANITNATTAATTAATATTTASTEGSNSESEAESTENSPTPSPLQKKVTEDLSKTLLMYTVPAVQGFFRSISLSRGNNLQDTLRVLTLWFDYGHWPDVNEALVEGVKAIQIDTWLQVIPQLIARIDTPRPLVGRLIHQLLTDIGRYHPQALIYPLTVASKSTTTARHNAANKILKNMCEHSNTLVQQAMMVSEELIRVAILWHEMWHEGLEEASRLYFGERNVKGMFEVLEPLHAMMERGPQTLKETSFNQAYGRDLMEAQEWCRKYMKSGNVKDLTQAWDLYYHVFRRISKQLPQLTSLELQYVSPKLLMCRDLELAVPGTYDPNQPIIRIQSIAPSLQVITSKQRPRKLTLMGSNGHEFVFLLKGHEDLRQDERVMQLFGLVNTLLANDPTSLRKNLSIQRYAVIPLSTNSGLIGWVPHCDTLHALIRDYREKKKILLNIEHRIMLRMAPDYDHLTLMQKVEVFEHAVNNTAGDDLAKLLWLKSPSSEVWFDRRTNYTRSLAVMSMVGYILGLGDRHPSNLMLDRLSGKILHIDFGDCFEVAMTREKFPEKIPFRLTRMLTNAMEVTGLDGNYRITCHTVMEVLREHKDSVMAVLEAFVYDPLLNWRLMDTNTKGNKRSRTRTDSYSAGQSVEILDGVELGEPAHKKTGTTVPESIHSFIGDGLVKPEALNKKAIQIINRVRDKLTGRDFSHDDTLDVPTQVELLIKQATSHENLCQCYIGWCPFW
row,IC50 [nM],Compound
1,26.8,"CCCNC(=O)Nc1ccc(-c2nc(N3CCOC[C@@H]3C)cc(C3(S(=O)(=O)c4ccccc4C(F)(F)F)CC3)n2)cc1 [Example 10h, 3-[4-[4-[(3S)-3-methylmorpholin-4-yl]-6-[1-[2-(trifluoromethyl)phenyl]sulfonylcyclopropyl]pyrimidin-2-yl]phenyl]-1-propyl-urea]"
2,8.39,"C[C@H]1COCCN1c1cc(C2(S(=O)(=O)C3CC3)CC2)nc(-c2ccc(NC(=O)NCC(O)C(F)(F)F)cc2)n1 (stereo partly drawn) [Example 3q, 1-[4-[4-(1-cyclopropylsulfonylcyclopropyl)-6-[(3S)-3-methylmorpholin-4-yl]pyrimidin-2-yl]phenyl]-3-(3,3,3-trifluoro-2-hydroxypropyl)urea]"
3,2.31,"CCNC(=O)Nc1ccc(-c2nc(N3CCOC[C@@H]3C)cc(C3(S(=O)(=O)C(C)C)CC3)n2)cc1 [Example 7a, 1-ethyl-3-[4-[4-[(3S)-3-methylmorpholin-4-yl]-6-(1-propan-2-ylsulfonylcyclopropyl)pyrimidin-2-yl]phenyl]urea]"
4,11.6,"CCCNC(=O)Nc1ccc(-c2nc(N3CCOC[C@@H]3C)cc(C3(S(=O)(=O)C(C)C)CC3)n2)cc1 [Example 7h, 3-[4-[4-[(3S)-3-methylmorpholin-4-yl]-6-(1-propan-2-ylsulfonylcyclopropyl)pyrimidin-2-yl]phenyl]-1-propyl-urea]"
5,2.71,"CCNC(=O)Nc1ccc(-c2nc(N3CCOCC3)cc(C3(S(C)(=O)=O)CC3)n2)cc1 [Example 12b, 3-ethyl-1-[4-[4-(1-methylsulfonylcyclopropyl)-6-morpholin-4-ylpyrimidin-2-yl]phenyl]urea]"
6,66.8,"C[C@H]1COCCN1c1cc(C2(S(C)(=O)=O)CCC2)nc(-c2ccc(NC(=O)NCCN(C)C)cc2)n1 [Example 5g, 3-(2-dimethylaminomethyl)-1-[4-[4-[(3S)-3-methylmorpholin-4-yl]-6-(1-methylsulfonylcyclobutyl)pyrimidin-2-yl]phenyl]urea]"
7,0.576,"CNC(=O)Nc1ccc(-c2nc(N3CCOC[C@@H]3C)cc(C3(S(=O)(=O)c4ccc(F)cc4)CC3)n2)cc1 [Example 8, 1-[4-[4-[1-(4-Fluorophenyl)sulfonylcyclopropyl]-6-[(3S)-3-methylmorpholin-4-yl]pyrimidin-2-yl]phenyl]-3-methyl-urea]"
8,1.67,"CNC(=O)Nc1ccc(-c2nc(N3CCOCC3)cc(C3(S(C)(=O)=O)CC3)n2)cc1 [Example 12a, 3-methyl-1-[4-[4-(1-methylsulfonylcyclopropyl)-6-morpholin-4-ylpyrimidin-2-yl]phenyl]urea]"

# Same assay, conditions: table of enzyme assay Test (a)(ii); read-out: Test (a)(ii) IC50
row,Compound,IC50 [nM]
1,"O=C(NCCCO)Nc1ccc(-c2nc(N3CCOCC3)cc(C3(S(=O)(=O)C4CC4)CCC3)n2)cc1 [Example 13u, 1-[4-[4-(1-cyclopropylsulfonylcyclobutyl)-6-morpholin-4-ylpyrimidin-2-yl]phenyl]-3-(3-hydroxypropyl)urea]",4.77
2,"C[C@H]1COCCN1c1cc(C2(S(=O)(=O)C3CC3)CCOCC2)nc(-c2ccc(NC(=O)Nc3cnn(C)c3)cc2)n1 [Example 23i, 1-[4-[4-(4-cyclopropylsulfonyloxan-4-yl)-6-[(3S)-3-methylmorpholin-4-yl]pyrimidin-2-yl]phenyl]-3-(1-methylpyrazol-4-yl)urea]",25.4
3,"CCCNC(=O)Nc1ccc(-c2nc(N3CCOC[C@@H]3C)cc(C3(S(=O)(=O)c4ccccc4)CC3)n2)cc1 [Example 36bi, 3-[4-[4-[1-(benzenesulfonyl)cyclopropyl]-6-[(3S)-3-methylmorpholin-4-yl]pyrimidin-2-yl]phenyl]-1-propylurea]",2.31
4,"C[C@H]1COCCN1c1cc(C2(S(=O)(=O)CCCO)CC2)nc(-c2ccc(NC(=O)NC(C)(C)CO)cc2)n1 [Example 31m, 3-(1-hydroxy-2-methylpropan-2-yl)-1-[4-[4-[1-(3-hydroxypropylsulfonyl)cyclopropyl]-6-[(3S)-3-methylmorpholin-4-yl]pyrimidin-2-yl]phenyl]urea]",5.91
5,"C[C@H]1COCCN1c1cc(C2(S(=O)(=O)CCO)CC2)nc(-c2ccc(NC(=O)Nc3cnn(C)c3)cc2)n1 [Example 16d, 1-[4-[4-[1-(2-hydroxyethylsulfonyl)cyclopropyl]-6-[(3S)-3-methylmorpholin-4-yl]pyrimidin-2-yl]phenyl]-3-(1-methylpyrazol-4-yl)urea]",3.64
6,"CNC(=O)Nc1ccc(-c2nc(N3CCOC[C@@H]3C)cc(C3(S(=O)(=O)c4ccc(F)cc4)CC3)n2)cc1 [Example 8, 1-[4-[4-[1-(4-Fluorophenyl)sulfonylcyclopropyl]-6-[(3S)-3-methylmorpholin-4-yl]pyrimidin-2-yl]phenyl]-3-methyl-urea]",0.959
7,"O=C(NCCCO)Nc1ccc(-c2nc(N3CCOCC3)cc(C3(S(=O)(=O)C4CC4)CC3)n2)cc1 [Example 13h, 1-[4-[4-(1-cyclopropylsulfonylcyclopropyl)-6-morpholin-4-ylpyrimidin-2-yl]phenyl]-3-(3-hydroxypropyl)urea]",10.6
8,"CCCNC(=O)Nc1ccc(-c2nc(N3CCOC[C@@H]3C)cc(C3(S(=O)(=O)c4nc(C)cs4)CC3)n2)cc1 [Example 25h, 3-[4-[4-[(3S)-3-methylmorpholin-4-yl]-6-[1-[(4-methyl-1,3-thiazol-2-yl)sulfonyl]cyclopropyl]pyrimidin-2-yl]phenyl]-1-propylurea]",0.993

# Results, then the molecule that gave them:
row,IC50 [nM],Compound
1,23.3,"CNC(=S)Nc1ccc(-c2nc(N3CCOC[C@@H]3C)cc(C3(S(=O)(=O)c4ccncc4)CC3)n2)cc1 [Example 37af, 3-methyl-1-[4-[4-[(3S)-3-methylmorpholin-4-yl]-6-(1-pyridin-4-ylsulfonylcyclopropyl)pyrimidin-2-yl]phenyl]thiourea]"
2,29.1,"Cc1nc(C)c(S(=O)(=O)C2(c3cc(N4CCOC[C@@H]4C)nc(-c4ccc(NC(=O)Nc5cnn(C)c5)cc4)n3)CC2)s1 [Example 78f, 1-[4-[4-[1-[(2,4-dimethyl-1,3-thiazol-5-yl)sulfonyl]cyclopropyl]-6-[(3S)-3-methylmorpholin-4-yl]pyrimidin-2-yl]phenyl]-3-(1-methylpyrazol-4-yl)urea]"
3,5.4,"CNC(=O)Nc1ccc(-c2nc(N3CCOCC3)cc(C3(S(=O)(=O)CCO)CC3)n2)cc1 [Example 47a, 1-[4-[4-[1-(2-hydroxyethylsulfonyl)cyclopropyl]-6-morpholin-4-ylpyrimidin-2-yl]phenyl]-3-methylurea]"
4,7.78,"C[C@H]1COCCN1c1cc(C2(S(=O)(=O)CCCO)CC2)nc(-c2ccc(NC(=O)NCCF)cc2)n1 [Example 64aj, 3-(2-fluoroethyl)-1-[4-[4-[1-(3-hydroxypropylsulfonyl)cyclopro-pyl]-6-[(3S)-3-methylmorpholin-4-yl]pyrimidin-2-yl]phenyl]urea]"
5,30.7,"CCNC(=O)Nc1ccc(-c2nc(N3CCOC[C@@H]3C)cc(C3(S(C)(=O)=O)CC3)n2)cc1F [Example 52b, 3-ethyl-1-[2-fluoro-4-[4-[(3S)-3-methylmorpholin-4-yl]-6-(1-methylsulfonylcyclopropyl)pyrimidin-2-yl]phenyl]urea]"
6,0.918,CNC(=O)Nc1ccc(-c2nc(N3CCOC[C@@H]3C)cc(C3(S(=O)(=O)c4nnc(C)s4)CC3)n2)cc1 [Example 38a]
7,5.37,"C[C@H]1COCCN1c1cc(C2(S(=O)(=O)c3ccc(OC(F)F)cc3)CC2)nc(-c2ccc(NC(=O)NCCF)cc2)n1 [Example 64e, 1-[4-[4-[1-[4-(difluoromethoxy)phenyl]sulfonyl-cyclopropyl]-6-[(3S)-3-methylmorpholin-4-yl]pyrimidin-2-yl]phenyl]-3-(2-fluoroethyl)urea]"
8,24.5,"C[C@H]1COCCN1c1cc(C2(S(=O)(=O)c3ccccc3)CC2)nc(-c2ccc(NC(=O)NCC(=O)N(C)C)cc2)n1 [Example 36dq, 2-[[4-[4-[1-(benzenesulfonyl)cyclopropyl]-6-[(3S)-3-methylmorpholin-4-yl]pyrimidin-2-yl]phenyl]carbamoylamino]-N,N-dimethylacetamide]"
9,28.8,"C[C@H]1COCCN1c1cc(C2(S(=O)(=O)CCCO)CCC2)nc(-c2ccc(NC(=O)NCCC#N)cc2)n1 [Example 43c, 3-(2-cyanoethyl)-1-[4-[4-[1-(3-hydroxypropylsulfonyl)cyclobu-tyl]-6-[(3S)-3-methylmorpholin-4-yl]pyrimidin-2-yl]phenyl]urea]"
10,4.36,CNC(=O)Nc1ccc(-c2nc(N3CCOC[C@@H]3C)cc(C3(S(=O)(=O)c4ncc[nH]4)CC3)n2)cc1 [Example 40]
11,4.13,"Cc1csc(S(=O)(=O)C2(c3cc(N4CCOC[C@@H]4C)nc(-c4ccc(NC(=O)N[C@@H](C)CO)cc4)n3)CCC2)n1 [Example 98b, 3-[(2S)-1-hydroxypropan-2-yl]-1-[4-[4-[(3S)-3-methylmorpholin-4-yl]-6-[1-[(4-methyl-1,3-thiazol-2-yl)sulfonyl]cyclobutyl]pyrimidin-2-yl]phenyl]urea]"
12,1.98,"C[C@H]1COCCN1c1cc(C2(S(=O)(=O)c3ccccc3)CC2)nc(-c2ccc(NC(=O)NC3COC3)cc2)n1 [Example 36bp, 1-[4-[4-[1-(benzenesulfonyl)cyclopropyl]-6-[(3S)-3-methylmorpholin-4-yl]pyrimidin-2-yl]phenyl]-3-(oxetan-3-yl)urea]"
13,13.9,"C[C@H]1COCCN1c1cc(C2(S(=O)(=O)C3CC3)CC2)nc(-c2ccc(NC(=O)NCC(F)F)cc2)n1 [Example 64u, 1-[4-[4-(1-cyclopropylsulfonylcyclopropyl)-6-[(3S)-3-methylmorpholin-4-yl]pyrimidin-2-yl]phenyl]-3-(2,2-difluoroethyl)urea]"
14,28,"C[C@@H](CO)NC(=O)Nc1ccc(-c2nc(N3CCOC[C@@H]3C)cc(C3(S(=O)(=O)CCCO)CCC3)n2)cc1 [Example 43q, 3-[(2S)-1-hydroxypropan-2-yl]-1-[4-[4-[1-(3-hydroxypropylsulfonyl)cyclobu-tyl]-6-[(3S)-3-methylmorpholin-4-yl]pyrimidin-2-yl]phenyl]urea]"
15,2,"C[C@H]1COCCN1c1cc(C2(S(=O)(=O)c3ccccc3F)CC2)nc(-c2ccc(NC(=O)NCCO)cc2)n1 [Example 58b, 1-[4-[4-[1-(2-fluorophenyl)sulfonylcyclopropyl]-6-[(3S)-3-methylmorpholin-4-yl]pyrimidin-2-yl]phenyl]-3-(2-hydroxyethyl)urea]"
